{"source": "patent US11186618B2", "about": "“Dendritic-cell-targeted peptide, fusion peptide utilizing said peptide, and vaccine utilizing said fusion peptide” (The Research Foundation for Microbial Diseases of Osaka …, priority 2016, dated 2021)", "key": {"dendritic cells": {"test_system": "dendritic cells", "conditions": "Non-Patent Document 2; cited from earlier work"}, "Neuropilin-1": {"target": "Neuropilin-1 (Homo sapiens, UniProt O14786)", "sequence (O14786 22-923, species assumed)": "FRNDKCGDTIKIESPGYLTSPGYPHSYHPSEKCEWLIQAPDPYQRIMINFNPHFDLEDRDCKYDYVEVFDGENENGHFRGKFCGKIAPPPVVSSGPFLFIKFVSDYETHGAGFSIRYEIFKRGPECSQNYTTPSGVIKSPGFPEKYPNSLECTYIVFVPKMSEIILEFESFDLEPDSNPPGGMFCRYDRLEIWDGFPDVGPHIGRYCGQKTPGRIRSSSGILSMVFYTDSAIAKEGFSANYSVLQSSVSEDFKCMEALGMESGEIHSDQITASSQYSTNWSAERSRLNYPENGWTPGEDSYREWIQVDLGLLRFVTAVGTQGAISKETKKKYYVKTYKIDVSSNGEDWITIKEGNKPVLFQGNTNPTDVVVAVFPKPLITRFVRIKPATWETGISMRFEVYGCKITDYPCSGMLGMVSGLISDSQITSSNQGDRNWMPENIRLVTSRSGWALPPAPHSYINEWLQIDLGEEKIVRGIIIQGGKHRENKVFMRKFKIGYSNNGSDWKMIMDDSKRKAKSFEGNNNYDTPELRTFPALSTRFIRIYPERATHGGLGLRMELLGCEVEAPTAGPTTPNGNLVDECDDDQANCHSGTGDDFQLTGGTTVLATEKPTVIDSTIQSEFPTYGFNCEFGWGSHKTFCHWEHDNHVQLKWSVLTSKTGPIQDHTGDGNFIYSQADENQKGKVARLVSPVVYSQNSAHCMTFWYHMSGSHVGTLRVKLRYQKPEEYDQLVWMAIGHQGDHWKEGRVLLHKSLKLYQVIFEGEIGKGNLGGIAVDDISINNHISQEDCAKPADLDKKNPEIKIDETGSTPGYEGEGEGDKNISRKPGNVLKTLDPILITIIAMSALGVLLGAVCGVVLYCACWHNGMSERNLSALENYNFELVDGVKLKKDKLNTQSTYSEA", "conditions": "reported so far; cited from earlier work"}, "[1]": {"test_system": "NeutrAvidin-specific antibody", "assay": "NeutrAvidin-specific antibody titer in sera of mice given biotinylated peptide/NeutrAvidin complex, ELISA (Test Example 12)", "assay_type": "in vivo, mouse", "conditions": "5 μg as NeutrAvidin, base of tail Day 0 and Day 10, serum Day 17, IgG", "text": "A biotinylated peptide was synthesized by linking the N-terminus of each of FL4 identified in Test Example 1, a peptide Mut 1 (amino acid sequence: ASYKAIR (SEQ ID NO: 2)) derived from FL4 of which the 1st amino acid residue was substituted by an alanine residue, a peptide Mut 2 (amino acid sequence: VAYKAIR (SEQ ID NO: 3)) derived from FL4 of which the 2nd amino acid residue was substituted by an alanine residue, a peptide Mut 3 (amino acid sequence: VSAKAIR, SEQ ID NO: 43) derived from FL4 of which the 3rd amino acid residue was substituted by an alanine residue, and a peptide Mut 4 (amino acid sequence: VSYKAAR, SEQ ID NO: 44) derived from FL4 of which the […] amino acid residue was substituted by an alanine residue to biotin. Subsequently, a biotinylated peptide/NeutrAvidin complex was produced by mixing each of the obtained biotinylated peptides and NeutrAvidin.\n50 μL of physiological saline containing 5 μg of the complex or NeutrAvidin in terms of NeutrAvidin amount was administered into the base of the tail of each 7-week old C57BL/6 mouse on Day 0 and Day 10, and blood was collected on Day 17. As a control, a test was also carried out in the case where only physiological saline was administered in the same manner Meanwhile, in these tests, five mice in each group were used.\nSera were obtained from the blood collected on Day 17 and NeutrAvidin-specific antibody titer (IgG) in the sera was measured by ELISA. In FIG. 18, “NA” refers to the case of administration of NeutrAvidin, and “NA-FL4” refers to the case of administration of the biotinylated FL4/NeutrAvidin complex. Other peptides are shown in the same display format. Further, in FIG. 18, “cont” refers to the case where physiological saline was administered."}, "[2]": {"test_system": "bone marrow-derived dendritic cells (FL-DCs)", "assay": "Binding of biotinylated peptide/streptavidin complex to dendritic cells, flow cytometry (Test Example 7)", "assay_type": "cell-based, mouse", "conditions": "0.6 μg complex, PE-labeled streptavidin, FL-DCs and spleen-derived dendritic cells", "description": "A biotinylated peptide/streptavidin complex was produced in the same manner as in Test Example 4 above using each of the peptide consisting of the amino acid sequence of FL4 identified in Test Example 1 above and its scramble peptide (amino acid sequence: YRSIVKA; SEQ ID NO: 38).\nEach of various test cells and 0.6 μg of each of various complexes were mixed, and then the binding of each of various complexes to cells was evaluated by flow cytometric analysis. Cells used were 1×10^5 FL-DCs, 1×10^6 CD11c positive cells purified from the spleen using MACS (the spleen-derived dendritic cells) and 1×10^6 murine splenocytes."}, "[3]": {"test_system": "mouse-derived dendritic cells (FL-DCs)", "assay": "Binding of phage clones to mouse-derived dendritic cells by flow cytometric analysis (Test Example 1)", "assay_type": "cell-based", "conditions": "phage clone displaying the peptide, 1.6×10^10 pfu/mL, 1×10^5 mouse-derived dendritic cells, flow cytometry with antibody against the phage", "description": "Meanwhile, in the following test examples, unless otherwise indicated, as mouse-derived dendritic cells, dendritic cells (FL-DCs) that were obtained by culturing murine bone marrow cells in the presence of Flt3-L (final concentration 100 ng/ml) for 1 week to induce differentiation were used. In addition, in the following test examples, FL-DCs were analyzed in some cases separately for Plasmacytoid DCs (pDCs), CD11b positive dendritic cells (CD11b^+ DCs), and CD11b negative dendritic cells (CD11b^− DCs). Among the mouse-derived dendritic cells, pDCs is a group of CD11c positive and B220 positive cells; CD11b^+ DCs is a group of CD11c positive, B220 negative and CD11b positive cells among mouse-derived dendritic cells; CD11b^− DCs is a group of CD11c positive, B220 negative, and CD11b negative cells among mouse-derived dendritic cells.\nEach of phages recovered by three panning operations was monocloned and amplified. 1×10^5 mouse-derived dendritic cells and 1.6×10^10 pfu/mL of each phage clone were mixed, and then the phage was assayed for the binding to dendritic cells by flow cytometric analysis using an antibody against the phage.\nAbout 60 phage clones obtained were subjected to flow cytometric analysis as described above. As a result, 37 clones shown in Table 1 were identified as clones capable of binding to dendritic cells. […]"}, "[4]": {"test_system": "dendritic cells contained in splenocytes", "assay": "Binding of phage clones to dendritic cells contained in splenocytes, flow cytometry (Test Example 6)", "assay_type": "cell-based, mouse", "conditions": "phage clone 1.6×10^10 pfu/mL, 1×10^5 splenocytes", "description": "(§1) Specifically, 1×10^5 splenocytes collected from mice and 1.6×10^10 pfu/mL of each phage clone were mixed, and the biotinylated antibody to the phage was added. Further, streptavidin modified with a fluorescent dye was added, and the binding of the phage to splenocytes was evaluated by flow cytometric analysis."}, "[5]": {"test_system": "CD4^+ T cells contained in splenocytes", "assay": "Binding of phage clones to CD4+ T cells contained in splenocytes, flow cytometry (Test Example 6)", "assay_type": "cell-based, mouse", "conditions": "phage clone 1.6×10^10 pfu/mL, 1×10^5 splenocytes", "description": "as §1"}, "Clec9a": {"test_system": "Clec9a", "sequence (Q8BRU4 106-238 limits assumed)": "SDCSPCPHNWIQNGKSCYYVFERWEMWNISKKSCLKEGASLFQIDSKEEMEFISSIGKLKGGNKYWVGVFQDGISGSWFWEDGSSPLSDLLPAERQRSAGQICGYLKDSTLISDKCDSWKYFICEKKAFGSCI", "conditions": "Non-Patent Document 1; cited from earlier work"}, "EG7 cells": {"test_system": "EG7 cells", "assay": "Tumor size in mice transplanted with EG7 cells (Test Example 9)", "assay_type": "in vivo, mouse", "conditions": "EG7 tumor bearing C57BL/6 mice", "description": "In this test, whether the regression effect of cancer was observed by SL8-specific CD8^+ CTLs induced by SL8-FL4 was evaluated. In this test, EG7 cells (cancer cells expressing OVA protein in EL4 cells derived from thymoma of C57BL/6 mouse) were used as cancer cells. Specific test methods are as follows.\n1 (10^6 EG7 cells were transplanted into the abdomen of 7-week old C57BL/6 mice to prepare tumor bearing mice. 50 μL of physiological saline containing 50 μg of SL8-FL4 in terms of SL8 amount and 50 μg of CpG oligodeoxynucleotide (K3 type, product name “K3 Et-Free”, product number “CN-65003” manufactured by GeneDesign Inc.) was administered subcutaneously into the ears of mice after EG7 cells were transplanted and the tumor diameter reached about 5 mm (about 5 days after transplantation). Thereafter, tumor size was measured over time while breeding the mice. In addition, similar tests were carried out with regard to the case where 50 μL of physiological saline containing 50 μg SL8 and 50 μg of CpG oligodeoxynucleotide was administered, and the case where only physiological saline was administered (control). Meanwhile, in these tests, five mice in each group were used."}, "[6]": {"test_system": "antigen-specific CD8^+ CTLs", "assay": "Tetramer assay on regional lymph nodes, CD8+ CTL inducibility (Test Example 8)", "assay_type": "in vivo, mouse", "conditions": "co-administered with CpG oligodeoxynucleotide, 50 μg in terms of SL8 subcutaneously into the ears Day 0, lymph nodes Day 7", "description": "A fusion peptide (SL8-FL4) was prepared by linking the N-terminus of the peptide consisting of the amino acid sequence of FL4 to the C-terminus of SL8 (SIINFEKL; SEQ ID NO: 40) which is an MHC class I epitope peptide in chicken ovalbumin (OVA). Specifically, the amino acid sequence of the fusion peptide is [Amino acid sequence of SL8 (SIINFEKL; SEQ ID NO: 40)]-[VSYKAIR; SEQ ID NO: 1]. The production method of the fusion peptide was the same as that of PspA-FL4 except that a DNA molecule encoding SL8 was used. In addition, each of peptide-fusion bodies (SL8-F8 and SL8-FL4Scr) in which the peptide was fused with SL8 was prepared using each of FL8 and the scramble peptide of FL4 (FL4Scr, amino acid sequence: YRSIVKA, SEQ ID NO: 41) in the same manner. […]\n(§2) The tetramer assay was carried out as follows. Lymphocytes were recovered from the regional lymph nodes, were stained with fluorescently labeled antibodies against CD44 and CD8 and a fluorescently labeled tetramer recognizing the SL8 peptide presented on H-2K^b, then were analyzed using a flow cytometer."}, "[7]": {"test_system": "antigen-specific CD8^+ CTLs", "assay": "Tetramer assay after pulmonary administration (Test Example 13)", "assay_type": "in vivo, mouse", "conditions": "pulmonary administration Day 0 and Day 7 with 10 μg CpG oligodeoxynucleotide, Day 14", "description": "as §2\n40 μL of physiological saline containing 50 μg of SL8-FL4 in terms of SL8 amount and 10 μg of CpG oligodeoxynucleotide (K3 type, product name “K3 Et-Free”, product number “CN-65003” manufactured by GeneDesign Inc.) was pulmonarily administrated to 7-week old C57BL/6 mice on Day 0 and Day 7, regional lymph nodes, lung tissues and the spleen were collected on Day 14 and a tetramer assay was performed in the same manner as Test Example 8. In addition, similar tests were conducted with regard to the case where 40 μL of physiological saline containing 50 μg SL8 alone was pulmonarily administered, the case where 50 μL of physiological saline containing 50 μg SL8 and 10 μg of CpG oligodeoxynucleotide was pulmonarily administered, and the case where only physiological saline was pulmonarily administered (control). Meanwhile, in these tests, five mice in each group were used."}, "[8]": {"test_system": "antigen-specific CD8^+ CTLs", "assay": "Tetramer assay, pulmonary versus subcutaneous administration (Test Example 14)", "assay_type": "in vivo, mouse", "conditions": "Day 14", "description": "as §2\nIn this study, CD8^+ cytotoxic T cells inducibility by pulmonary administration and that by subcutaneous administration were compared by using SL8-FL4. 40 μL of physiological saline containing 50 μg of SL8-FL4 in terms of SL8 amount and 10 μg of CpG oligodeoxynucleotide (K3 type, product name “K3 Et-Free”, product number “CN-65003” manufactured by GeneDesign Inc.) was pulmonarily or subcutaneously administered to 7-week old C57BL/6 mice on Day 0 and Day 7, regional lymph nodes and the spleen were collected on Day 14 and a tetramer assay was performed in the same manner as Test Example 8. In addition, a test was also carried out in the case where only physiological saline was subcutaneously administered in the same manner (control). Meanwhile, in these tests, five mice in each group were used."}}, "note": "“Also recorded” adds a separate entry of the source."}
{"substance": "NWYLPWLGTNDW (NW peptide)", "values": [{"measurement": "binding ability to dendritic cells", "setting": "dendritic cells", "value": "high binding ability to dendritic cells"}]}
{"substance": "RPARPAR (positive control peptide)", "values": [{"measurement": "binding to Neuropilin-1", "setting": "Neuropilin-1", "value": "bind to Neuropilin-1"}]}
{"substance": "VSYKAIR (Amino acid sequence of motif sequence) [FL4, also tested as biotinylated complex]", "values": [{"measurement": "NeutrAvidin-specific antibody production", "setting": "[1]", "value": "excellent production ability"}, {"measurement": "binding ability of biotinylated peptide/streptavidin complex to dendritic cells", "setting": "[2]", "value": "equivalent to that of the peptide consisting of the amino acid sequence of FL8"}, {"measurement": "binding of phage clone to dendritic cells", "setting": "[3]", "value": "bound to all dendritic cells; also recorded: binding to bone marrow-derived dendritic cells was confirmed"}, {"measurement": "binding of phage clone to dendritic cells contained in splenocytes", "setting": "[4]", "value": "bind to all dendritic cells contained in splenocytes; also recorded: equivalent to that of FL8"}, {"measurement": "binding of phage clone to CD4+ T cells contained in splenocytes", "setting": "[5]", "value": "also bound to CD4^+ T cells contained in splenocytes"}]}
{"substance": "WPRFHSSVFHTH (WH peptide)", "values": [{"measurement": "binding to Clec9a expressed on dendritic cells", "setting": "Clec9a", "value": "can selectively bind to Clec9a"}]}
{"substance": "[Amino acid sequence of SL8 (SIINFEKL; SEQ ID NO: 40)]-[VSYKAIR; SEQ ID NO: 1] (SIINFEKLVSYKAIR; SL8 C-terminus; Amino acid sequence of motif sequence) [SL8-FL4, fusion peptide of SL8 and FL4]", "values": [{"measurement": "tumor regression effects", "setting": "EG7 cells; 50 μg as SL8 with 50 μg CpG oligodeoxynucleotide subcutaneously into the ears, compared with physiological saline", "value": "very strong tumor regression effects"}, {"measurement": "cure of tumor bearing mice", "setting": "EG7 cells; co-administered with CpG oligodeoxynucleotide", "value": "completely cured mice were observed"}, {"measurement": "induction of antigen-specific CD8+ CTLs (tetramer assay, regional lymph nodes)", "setting": "[6]", "value": "strong induction"}, {"measurement": "induction of antigen-specific CD8+ CTLs in lung tissues", "setting": "[7]", "value": "strongly induced"}, {"measurement": "induction of antigen-specific CD8+ CTLs in regional lymph nodes in the lungs", "setting": "[7]", "value": "strongly induced"}, {"measurement": "induction of antigen-specific CD8+ CTLs in the spleen", "setting": "[7]", "value": "strongly induced"}, {"measurement": "induction of antigen-specific CD8+ CTLs in regional lymph nodes in the lungs", "setting": "[8]; pulmonary administration Day 0 and Day 7 with 10 μg CpG oligodeoxynucleotide", "value": "strong induction"}, {"measurement": "induction of antigen-specific CD8+ CTLs in the spleen", "setting": "[8]; subcutaneous administration Day 0 and Day 7 with 10 μg CpG oligodeoxynucleotide", "value": "Strong induction"}]}
